From patent US20240376087A1, “PYRAZOLE AMIDE BASED COMPOUNDS AND USES AGAINST BREAST CANCER THEREOF” (COUNCIL OF SCIENTIFIC AND INDUSTRIAL RESEARCH AN INDIAN …, priority 2021, published 2024)

Columns and labels:
Format in all cases: cell-based, human
MDA MB 231 cells [1] = experiment: Measurement of intracellular reactive oxygen species (FACS); conditions: MDA MB 231, CM-H2DCFDA
Protocol: The upregulation of ROS upon treatment with NIIST-AC-1 was analyzed using the fluorescent probe CM-H2DCFDA (Sigma). After treatment, the cells were incubated DMEM containing CM-H2DCFDA at a final concentration of 5 μM at 37° C. for 30 min. The trypsinised cells were then suspended in PBA and analyzed using FACS (BD FACSAria II (BD Biosciences) at fluorescein isothiocyanate (FITC) range (excitation 495 nm, emission 529 nm bandpass filter). The mean fluorescence intensities of different groups were analyzed by BD FACSDiva ver 6.1.3 software and corrected for autofluorescence from unlabeled cells.

MDA MB 231 cells [2] = experiment: RNA sequencing whole transcriptome analysis and gene set enrichment
Protocol: Toral RNA was isolated from the cells using RNeasy mini kit. 15 μg of cellular RNA was quality assessed (Bioanalyzer from Agilent Technologies) and used for mRNA library preparation. The mRNAs were fragmented, and the first strand of cDNA was synthesized from the cleaved RNA using random primers followed by second strand cDNA synthesis. The purified cDNA templates were enriched by PCR amplification to generate cDNA libraries. The developed libraries were presented to RNA sequencing facility and two rapid single-read 50 illumina HiSeq sequencing runs were performed. Raw reads from separate lanes of the same sample were merged for mapping. RNA sequencing was performed at Eurofins Genomics India Pvt. Ltd., Bengaluru 560048, Karnataka, India.
The output raw FASTQ files were analyzed using various tools of Galaxy platform to extract the differentially expressed genes as follows. The quality of the reads was analyzed using FastQC (Galaxy Version 0.72+galaxy1). The quality check reports were aggregated using MultiQC (Galaxy Version 1.9+galaxy1). Cutadapt (Galaxy Version 1.16.6) was used for adapter removal and filtering using threshold of minimum read length 20 and minimum quality (phred score) 20. Again, the quality was checked, and results were aggregated. The cleaned reads were mapped to a reference genome (Homo_sapiens.GRCh38.dna_sm.primary_assembly.fa.gz) and annotation file (Homo_sapiens.GRCh38.104.gtf.gz) using HISAT2 (Galaxy Version 2.1.0+galaxy7), a splice-aware alignment program. The output bam files are processed using StringTie (Galaxy Version 2.1.1) to assemble and quantitate RNA-Seq alignments into potential transcript. Later the Deseq2 (Galaxy Version 2.11.40.6+galaxy1) was used to determine normalized differentially expressed genes from the Stringtie output count tables. […] These differentially expressed genes were filtered using Filter (Galaxy Version 1.1.1) to extract significant ones by adding a filter of q-value<=0.05 and log 2 fold change >1.
The functional annotation (biological process, molecular function and pathways) was considered significant at False discovery rate (FDR B&H)<0.05. GSEA Preranked tool of standalone R program GSEA 4.1.0 was used to perform Gene Set Enrichment Analysis (GSEA) on ranked (log fold change based) list of total DEGs against CP: Canonical pathways (a pre-defined collection of 2922 gene sets) of Molecular Signatures Database (MSigDB). The enriched pathways with FDR qvalue less than 0.25 were considered significant.

MDA MB 231 cells [3] = experiment: Nuclear fragmentation by DAPI staining; conditions: MDA MB 231, DAPI staining, 24 hr
Protocol: Fragmentation of the nucleus on treatment with NIIST-AC-1 was analyzed using the cell permeable dye which binds to AT rich sequences in the minor groove of DNA. After treatment in 96 well culture plates for 24 hr, the cells were stained with DAPI for 20 min. The morphology of the stained nucleus was observed using a spinning disc fluorescent microscope at an excitation/emission of 360/460 nm (BD Pathway™ 855; Biosciences), and images were taken using the software BD Atto Vision™ version 1.6.

MDA MB 231 cells [4] = experiment: Wound healing (scratch wound) assay; conditions: 24 hr
Protocol: Wound healing assay was performed to understand the antimigration effects of NIIST-AC-1. The confluent monolayers of cells after making the scratch were treated with the test compounds at different concentrations for 24 hr. After the time interval, the wound closure by the migration of the cells was observed under the phase-contrast microscope (Nikon Eclipse TS100), and images were captured using NIS-Elements 3.21.00 imaging software at different time points (0, 24 h) at 4× magnification. The wound area was quantified using ImageJ 1.52p software.

MDA MB 231 cells [5] = experiment: Measurement of mitochondrial membrane potential (JC-1); conditions: MDA MB 231, JC-1, 24 h
Protocol: The cells were then treated with various concentrations of NIIST-AC-1 for 24 h. After removing the spent medium, 100 μl of freshly prepared JC-1 stain was added and samples were then incubated for 20 min in a CO2 incubator at 37° C. Immediately after the incubation, cells were observed under a spinning disc fluorescent microscope (BD Pathway 855), and images were taken using the software BD Atto Vision version 1.6.

EGFR = EGFR expression studies (immunofluorescence); conditions: fluorescent images
Protocol: The expression of EGFR after treatment with NIIST-AC-1 was evaluated using indirect immunofluorescence. The cells after treatment were fixed with paraformaldehyde and incubated with primary antibody overnight. After washing the primary antibody, the cells were treated with alexa fluor conjugated secondary antibody for visualization. The cells were counterstained with DAPI for nuclear staining and were observed under a fluorescent microscope (IX83 inverted microscope; Olympus Life Science, cell Sens Dimension ver 3.1 software).

MDA MB 231 cells [6] = experiment: Cell cycle analysis (PI flow cytometry, western blot)
Protocol: The distribution of cells in different phases of cell cycle was determined by flow cytometry after staining with propidium iodide. After treatment, the cells were harvested, ethanol fixed and stained with propidium iodide at 25° C. for 30 minutes. The cellular DNA content was measured with BD FACS Fortessa X-20 SORP according to detected signals in FL2 channel (excitation, 493 nm; emission, 636 nm) and data were analyzed with FloJo software, version 9. Approximately 10,000 cells were counted for each analysis, and the distribution of cells in each phase of the cell cycle was saved as histograms. Western blot analysis was done to study the expression profiles of various proteins involved in the cell cycle machinery.

[7] = whole transcriptome, q-value<=0.05 and log 2 fold change >1

**Q.** Which results are given for `COc1cc(-c2cc(C(=O)NCc3cc(C(F)(F)F)cc(C(F)(F)F)c3)[nH]n2)cc(OC)c1OC` [I-8, N-(3,5-bis(trifluoromethyl)benzyl)-3-(3,4,5-trimethoxyphenyl)-1H-pyrazole-5-carboxamide]?
**A.** ROS generation (MDA MB 231 cells [1]): significant generation of ROS; downregulated signaling pathways (gene set enrichment analysis) (MDA MB 231 cells [2]; downregulated genes vs canonical gene sets): downregulated many signaling pathways that are critical in the cell death process; upregulated signaling pathways (gene set enrichment analysis) (MDA MB 231 cells [2]; upregulated genes vs canonical gene sets): upregulation of signaling pathways of ER stress induced apoptosis, UPR response, autophagy, HDAC acetylation; number of downregulated genes (MDA MB 231 cells [2]; [7]): 1642 genes; number of upregulated genes (MDA MB 231 cells [2]; [7]): 1337 genes; nuclear fragmentation (MDA MB 231 cells [3]): significant nuclear fragmentation; cell migration (MDA MB 231 cells [4]): cell migration inhibition was evident; mitochondrial membrane potential (MDA MB 231 cells [5]): loss of mitochondrial membrane potential; EGFR expression (EGFR): reduction in EGFR expression; cell cycle arrest (MDA MB 231 cells [6]; MDA MB 231, PI labelling, FACS): cell cycle arrest at S phase; cell cycle regulatory proteins cyclin B1, cyclin A2 and CDK (MDA MB 231 cells [6]; western blot): downregulated
